From PMC3734263, “Fatty Acid Amide Hydrolase-Dependent Generation of Antinociceptive Drug Metabolites Acting on TRPV1 in the Brain” (PLoS ONE, 2013)

Key:
mice [1] = assay: Spontaneous locomotor activity in actimetry boxes; assay type: in vivo, mouse; settings: 10 min before test
Experimental: Mice were placed in actimetry boxes (Actisystem; Apelex, France) and spontaneous motor activity was assessed by determining the number of crossings of light beams during 15 min.

[2] = Global brain levels of endocannabinoids in the rat after 4-aminophenol; assay type: in vivo; settings: 4-aminophenol 100 mg/kg i.p.; 15, 30, 45 and 60 min
Experimental: (§1) The whole brain was homogenized in ice-cold 10 mM Tris buffer (ml/g tissue) at pH 7.6. The buffer solution contained 1 mM EDTA, 0.3 mM ascorbic acid and 10 µM methylarachidonylfluorophosphonate (MAFP) to prevent degradation of AM404, arvanil, olvanil, anandamide and 2-arachidonoylglycerol. Aliquots (200 µl) of blood and homogenates were precipitated with 1 ml ice-cold acetone, containing AM404-D4 (5 nM) or anandamide-D8 (100 nM) as internal standard. After centrifugation at 25,200 g for 30 min at 4°C, the supernatants were collected in polypropylene tubes and vacuum evaporated. The protein content of the pellet was determined with Coomassie protein assay (Pierce; Illinois, USA), using bovine serum albumin as standard. […] Samples were analyzed on a Waters Aquity UPLC system coupled to a Sciex 5500 tandem mass spectrometer (LC-MS/MS; AB Sciex; Massachusetts, USA) or a Perkin Elmer 200 HPLC system coupled to an API 3000 tandem mass spectrometer (LC-MS-MS; Applied Biosystems/MDS-SCIEX).
Quantification of anandamide and 2-arachidonoylglycerol. Anandamide (m/z 348.2/62.0), anandamide-D8 (m/z 356.4/63.0) and 2-arachidonoylglycerol (m/z 379.2/287.0) were determined as previously described. Since 2-arachidonoylglycerol is non-enzymatically converted to 1-arachidonoylglycerol, the content of 2-arachidonoylglycerol was estimated as the sum of these lipids. […]

mice [3] = assay: Formalin test, mouse; assay type: in vivo; settings: for formalin test phases: HMBA 100 mg/kg
Experimental: (§2) The animals received an intraplantar injection of a 2.5% formalin solution (50 µl rat, 25 µl mouse) into a hind paw. The time spent biting and licking of the injected paw was monitored during the two typical phases of the nociceptive response (phase I: 0–5 min; phase II: 20–40 min in rats or 15–40 min in mice).

rats [4] = assay: Formalin test, rat; assay type: in vivo; settings: 4-aminophenol 10, 30 and 100 mg/kg i.p.
Experimental: as §2

mice [5] = assay: von Frey filament test, mouse; assay type: in vivo; settings: 30 mg/kg i.p.
Text: Calibrated von Frey filaments (0.0045–5.4950 g) were used to induce light noxious mechanical stimulation in mice. Tests were commenced after one hour of habituation. Filaments of increasing stiffness were applied five times perpendicular to the plantar surface of the hindpaw and pressed until bending. The first filament that evoked at least three consecutive responses was assigned as the threshold (cut-off 2 g).

rodents = settings: doses not far from those eliciting antinociception in rodents; cited from earlier work
mice [6] = assay: Tail immersion test, mouse; assay type: in vivo; settings: 30 mg/kg i.p.
Experimental: Tails of mice were submerged in a hot water bath (46°C) and the withdrawal latency recorded (cut-off 15 s). The mean of four baseline values were determined before drug administration.

rats [7] = assay: Paw pressure test, rat
Experimental: The behavioural tests were performed in a quiet room and evaluated by a single investigator in a blinded manner. Treatments and/or genotypes were randomized in blocks and the number of animals in each block corresponded to the number of treatments and/or genotypes compared. […] Each animal was exposed to only one treatment.
The rats were submitted to the paw pressure test, using an Ugo Basile analgesy meter with a probe tip diameter of 1 mm (Bioseb, France). Nociceptive thresholds, expressed in grams (g), were measured by applying an increasing pressure to the right hind paw until a squeak (vocalization thresholds) was obtained (cut-off 750 g). Two consecutive stable vocalisation threshold values were first obtained (baseline).
Intrathecal injections were performed on anaesthetised rats held in one hand by the pelvic girdle. A 25 gauge 1 inch needle connected to a 25 µl Hamilton syringe was then inserted into the subarachnoidal space between lumbar vertebrae L5 and L6 until a tail flick was elicited. The syringe was held in position for few seconds after the injection of a volume of 10 µl [49]. All injections were performed under isoflurane anaesthesia (4% induction, 2% maintenance).

[8] = Contents of amines and lipid metabolites in blood and brain after i.p. injection in mice (LC-MS/MS); assay type: in vivo, mouse; settings: mouse
Experimental: Twenty min after drug administration, the animals were anesthetized by CO2 (rats) or isoflurane (mice) inhalation and decapitated. The brain was removed from the skull and blood was collected in test tubes, containing 60 µl buffered citrate, and the tissues snap frozen in liquid nitrogen before storage at −70°C.
as §1
(§3) Quantification of AM404, HPODA, arvanil and olvanil. Samples were analyzed on a Waters Aquity UPLC system coupled to a Sciex 5500 tandem mass spectrometer. Sample aliquots of 5 µl were injected into an Acquity UPLC BEH C18 column (100 × 2 mm, 1.7 µm; Waters) held at 50°C. All mobile phases were water-acetonitrile gradients, containing 0.1% formic acid and using a flow rate of 400 µl/min. The acetonitrile content was initially 30%, then increased linearly to 100% over 7 min and kept at this level for 4 min, followed by an equilibration period at 30% for 2 min. The electrospray interface was operating in the positive ion mode at 550°C and the ion spray voltage was set to 5000 volts. The mass transitions (m/z) used were the following: 396.2/110.1 for AM404, 374.2/110.0 for HPODA, 400.2/114.0 for AM404-D4, 440.3/137.1 for arvanil and 418.3/137.1 for olvanil. The declustering potentials were between 96 and 130 volts and the collision energies between 25 and 41 volts.
Quantification of 4-aminophenol and HMBA. Sample aliquots of 5 µl were injected into a Hypercarb column (50 × 2.1 mm; Thermo). All mobile phases were water-acetonitrile gradients, containing 0.1% formic acid. The acetonitrile content was initially 2%, then increased linearly to […] over 5 min and then kept at 100% for 1 min, followed by an equilibration period at 2% for 1.5 min. The electrospray ion source was set at 550°C and used in the positive ion mode with an ion spray voltage of 5000. […] HMBA loses the amino group already in the source of the MS and therefore the mass transition used was 137.0/94.0. The declustering potentials were 100 and 90 volts and the collision energies 21 and 29 volts. No internal standard was used for these analyses.
The contents of the compounds were expressed either in moles or as normalized peak areas (nPA) and related to the protein content in the samples. The nPA was obtained by dividing the peak area of the analyte with the peak area for the internal standard in the same sample. The detection limits were calculated as the concentrations corresponding to three times the standard deviation of the blanks. When levels were below detection limit, numerical values of half the detection limit were used in the calculations.

rats [9] = settings: 4-aminophenol three doses, data not shown
[10] = Formation of arvanil and olvanil in brain homogenates incubated with HMBA; assay type: in vitro ADME, rat; settings: HMBA 100 µM, 60 min
Experimental: Rat brain homogenate were prepared, as previously described. Brains were homogenized in Tris buffer (10 mM, pH 7.6), containing ethylenediaminetetraacetic acid (EDTA; 1 mM), at volumes of 5–10 ml/g tissue. Experiments were carried out on aliquots of 200 µl homogenate at 37°C as further explained in the text. The reactions were stopped by adding 1 ml ice-cold acetone, containing 1 µM [^2H8]-anandamide. The samples were kept on ice until the acetone phase was vacuum evaporated.
as §3, with “The declustering potentials were between 96 and 130 volts and the collision energies between 25 and 41 volts.” left out

[11] = 20 min after 4-AP 30 mg/kg i.p.
[12] = 20 min after 4-AP 100 mg/kg i.p.

Nc1ccc(O)cc1 [4-aminophenol]
locomotor activity (mice [1]; 4-aminophenol 10, 30 and 100 mg/kg i.p.): reduced locomotor activity after the highest dose
global levels of the endocannabinoids anandamide and 2-arachidonoylglycerol in the rat brain [2]: did not affect the global levels
licking time in formalin test (mice [3]; 30 mg/kg i.p., FAAH+/+ mice): reduced the licking time during the first and second phases
antinociception in formalin test (mice [3]; 30 mg/kg i.p., FAAH−/− mice): failed to produce antinociception
antinociceptive activity in formalin test (mice [3]; 30 mg/kg i.p., TRPV1−/− mice): lost
licking time in rat formalin test (rats [4]): Only the highest dose reduced both phases
withdrawal threshold in von Frey test (mice [5]; FAAH+/+ mice): increased the withdrawal threshold
antinociception in von Frey test (mice [5]; FAAH−/− mice): failed to produce antinociception
antinociceptive activity in von Frey test (mice [5]; TRPV1−/− mice): lost
nephrotoxic effect after a single exposure (rodents): renal tubular necrosis
latency time in tail immersion test (mice [6]; FAAH+/+ mice): increased
antinociception in tail immersion test (mice [6]; FAAH−/− mice): failed to produce antinociception
antinociceptive activity in tail immersion test (mice [6]; TRPV1−/− mice): lost
withdrawal threshold in rat paw pressure test (rats [7]; 100 mg/kg i.p., 15 and 30 min after administration): increased the withdrawal threshold
withdrawal threshold in rat paw pressure test (rats [7]; intermediate dose 30 mg/kg i.p.): effective only at 15 min
withdrawal threshold in rat paw pressure test (rats [7]; low dose 10 mg/kg i.p.): inactive
quotient between brain levels of 4-aminophenol and AM404 ([8]; 4-aminophenol 30 mg/kg i.p.): 223
quotient between brain levels of 4-aminophenol and HPODA ([8]; 4-aminophenol 30 mg/kg i.p.): 951
quotient between brain levels of 4-aminophenol and AM404 ([8]; 4-aminophenol 100 mg/kg i.p.): 1,547
quotient between brain levels of 4-aminophenol and HPODA ([8]; 4-aminophenol 100 mg/kg i.p.): 9,376
Blood 4-AP [8, 11]: 283 ± 15 nmol/g
Brain 4-AP [8, 11]: 91 nmol/g
Brain 4-AP ([8]; 20 min after 4-AP 30 mg/kg i.p., listed as 4-AP): 91 ± 12 nmol/g
Blood 4-AP [8, 12]: 878 ± 157 nmol/g
Brain 4-AP [8, 12]: 7470 ± 1720 nmol/g
locomotor activity (rats [9]): tolerated all three doses

COc1cc(CN)ccc1O [HMBA, 4-hydroxy-3-methoxybenzylamine]
locomotor activity (mice [1]; HMBA 100, 200 and 300 mg/kg i.p.): only the dose of 100 mg/kg failed to affect locomotion
formation of N-acylamines in brain homogenates [10]: leads to the formation of arvanil and olvanil
formalin test phases (mice [3]; FAAH−/− mice): affected none of these phases
formalin test phases (mice [3]; wild-type mice): inhibited both the first and second phases
